20 molecules from US9340521B2, “Method for dual inhibition of SGLT1 and SGLT2 using diphenylmethane derivatives” (GREEN CROSS CORPORATION, priority 2013, dated 2016) can be followed below.

The target of one assay is Human SGLT1 (hSGLT1) (Homo sapiens (Human), UniProt P13866). Nature of the assay: Inhibitory effects on human SGLT1 activities (14C-AMG uptake, sodium-dependent glucose transport assay). The assay is classed as cell-based. Conditions: 37° C. for 2 h, single determinations. On the procedure: Test 3: Inhibitory Effects on Human SGLT1 Activities
Sequence of Human SGLT1 (hSGLT1) (P13866 whole entry): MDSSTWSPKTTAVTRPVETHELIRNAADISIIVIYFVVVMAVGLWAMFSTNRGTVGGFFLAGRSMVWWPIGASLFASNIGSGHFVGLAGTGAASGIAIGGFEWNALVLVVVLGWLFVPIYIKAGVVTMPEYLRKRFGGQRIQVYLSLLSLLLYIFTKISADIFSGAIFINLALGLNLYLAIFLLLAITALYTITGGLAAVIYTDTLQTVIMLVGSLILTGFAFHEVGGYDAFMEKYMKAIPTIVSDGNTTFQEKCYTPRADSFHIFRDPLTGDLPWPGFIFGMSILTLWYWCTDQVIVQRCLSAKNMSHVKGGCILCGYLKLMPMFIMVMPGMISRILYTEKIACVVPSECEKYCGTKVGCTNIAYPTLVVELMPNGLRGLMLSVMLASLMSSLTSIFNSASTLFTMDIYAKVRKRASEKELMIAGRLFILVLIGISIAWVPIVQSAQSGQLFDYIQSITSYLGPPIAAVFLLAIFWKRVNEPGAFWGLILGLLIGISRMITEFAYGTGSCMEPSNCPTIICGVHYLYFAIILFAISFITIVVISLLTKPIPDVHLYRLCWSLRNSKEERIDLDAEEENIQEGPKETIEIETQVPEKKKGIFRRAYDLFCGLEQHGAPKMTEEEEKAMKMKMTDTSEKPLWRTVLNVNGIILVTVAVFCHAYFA
(§1) For sodium-dependent glucose transport assay, cells expressing […] were seeded into a 96-well culture plate at a density of 5×10^4 cells/well in RPMI medium 1640 containing 10% fetal bovine serum. The cells were used 1 day after plating. They were incubated in pretreatment buffer (10 mM HEPES, 5 mM Tris, 140 mM choline chloride, 2 mM KCl, 1 mM CaCl2, and 1 mM MgCl2, pH 7.4) at 37° C. for 10 min. They were then incubated in uptake buffer (10 mM HEPES, 5 mM Tris, 140 mM NaCl, 2 mM KCl, 1 mM CaCl2, 1 mM MgCl2, and 1 mM ^14C-nonlabeled AMG pH 7.4) containing ^14C-labeled (8 μM) and inhibitor or dimethyl sulfoxide (DMSO) vehicle at 37° C. for 2 h. Cells were washed twice with washing buffer (pretreatment buffer containing 10 mM AMG at room temperature) and then the radioactivity was measured using a liquid scintillation counter. IC50 was determined by nonlinear regression analysis using GraphPad PRISM.

For another assay, the target named is Human SGLT2 (hSGLT2) (Homo sapiens (Human), UniProt P31639). Nature of the assay: Inhibitory effects on human SGLT2 activities (14C-AMG uptake, sodium-dependent glucose transport assay). The assay is classed as cell-based. Conditions: hSGLT2-expressing CHO cells, 37° C. for 2 h, single determinations.
Sequence of Human SGLT2 (hSGLT2) (P31639 whole entry): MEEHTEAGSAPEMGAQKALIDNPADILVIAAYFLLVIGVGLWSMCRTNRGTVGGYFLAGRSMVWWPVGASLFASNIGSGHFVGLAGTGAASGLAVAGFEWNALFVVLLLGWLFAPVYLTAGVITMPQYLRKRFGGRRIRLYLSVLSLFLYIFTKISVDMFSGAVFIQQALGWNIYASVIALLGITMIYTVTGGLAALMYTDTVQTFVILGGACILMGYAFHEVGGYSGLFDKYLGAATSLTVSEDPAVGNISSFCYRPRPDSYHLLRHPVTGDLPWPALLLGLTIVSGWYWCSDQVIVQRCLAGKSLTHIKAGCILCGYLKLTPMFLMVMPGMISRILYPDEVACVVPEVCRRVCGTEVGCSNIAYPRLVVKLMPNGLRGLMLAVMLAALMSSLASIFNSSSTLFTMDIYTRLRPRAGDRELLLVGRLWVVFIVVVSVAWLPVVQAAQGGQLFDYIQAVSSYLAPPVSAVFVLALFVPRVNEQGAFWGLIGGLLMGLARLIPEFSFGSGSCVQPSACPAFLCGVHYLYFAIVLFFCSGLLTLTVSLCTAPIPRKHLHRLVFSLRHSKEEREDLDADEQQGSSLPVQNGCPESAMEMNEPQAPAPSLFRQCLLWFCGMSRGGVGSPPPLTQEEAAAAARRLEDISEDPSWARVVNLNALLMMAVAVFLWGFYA
Description: Test 1: Cloning and Cell Line Construction for Human SGLT2
Human SGLT2 (hSGLT2) gene was amplified by PCR from cDNA-Human Adult Normal Tissue Kidney (Invitrogen). The hSGLT2 sequence was cloned into pcDNA3.1(+) for mammalian expression and stably transfected into chinese hamster ovary (CHO) cells. SGLT2-expressing clones were selected based on resistance to G418 antibiotic (Geneticin) and activity in the ^14C-α-methyl-D-glucopyranoside (^14C-AMG) uptake assay.
Test 2: Inhibitory Effects on Human SGLT2 Activities
as §1, with “^14C-labeled AMG” for “^14C-labeled”, “the inventive compound” for “inhibitor”, “PRISM [Katsuno, K. et al. J. Pharmacol. Exp. Ther. 2007, 320, 323-330; Han, S. et al. Diabetes, 2008, 57, 1723-1729].” for “PRISM.”

With `CCOc1ccc(Cc2cc([C@@H]3O[C@H](SC)[C@@H](O)[C@H](O)[C@H]3O)c3c(c2Cl)OCCO3)cc1` [Compound E021, (2S,3R,4R,5S,6R)-2-(8-Chloro-7-(4-ethoxybenzyl)-2,3-dihydrobenzo[b][1,4]dioxin-5-yl)-6-(methylthio)tetrahydro-2H-pyran-3,4,5-triol], the IC50 on Human SGLT1 (hSGLT1) worked out at 166 nM; at Human SGLT2 (hSGLT2), 0.71 nM.
On the same counts, the results for `OC[C@H]1O[C@@H](c2cc(Cc3ccc(C4CC4)cc3)c(Cl)c3c2CCCO3)[C@H](O)[C@@H](O)[C@@H]1O` [Compound E022, (2S,3R,4R,5S,6R)-2-(8-Chloro-7-(4-cyclopropylbenzyl)chroman-5-yl)-6-(hydroxymethyl)tetrahydro-2H-pyran-3,4,5-triol] are 50 nM and 0.88 nM.
On the same counts, the results for `COc1ccc(Cc2cc([C@@H]3O[C@H](CO)[C@@H](O)[C@H](O)[C@H]3O)c3c(c2Cl)OCCC3)cc1` [Compound E023, (2S,3R,4R,5S,6R)-2-(8-Chloro-7-(4-methoxybenzyl)chroman-5-yl)-6-(hydroxymethyl)tetrahydro-2H-pyran-3,4,5-triol] are 78.1 nM and 2.1 nM.
`OC[C@H]1O[C@@H](c2cc(Cc3ccc(C4CC4)cc3)c(Cl)c3c2OCO3)[C@H](O)[C@@H](O)[C@@H]1O` [Compound E024, (2S,3R,4R,5S,6R)-2-(7-Chloro-6-(4-cyclopropylbenzyl)benzo[d][1,3]dioxol-4-yl)-6-(hydroxymethyl)tetrahydro-2H-pyran-3,4,5-triol]: the figures for the IC50 on Human SGLT1 (hSGLT1) and against Human SGLT2 (hSGLT2) were 53 nM and 0.37 nM, respectively.
On the same counts, the results for `COc1ccc(Cc2cc([C@@H]3O[C@H](CO)[C@@H](O)[C@H](O)[C@H]3O)c3c(c2Cl)OCO3)cc1` [Compound E025, (2S,3R,4R,5S,6R)-2-(7-Chloro-6-(4-methoxybenzyl)benzo[d][1,3]dioxol-4-yl)-6-(hydroxymethyl)tetrahydro-2H-pyran-3,4,5-triol] are 89.4 nM and 1.2 nM.
On the same counts, the results for `CCc1ccc(Cc2cc([C@@H]3O[C@H](CO)[C@@H](O)[C@H](O)[C@H]3O)c3c(c2Cl)OCO3)cc1` [Compound E026, (2S,3R,4R,5S,6R)-2-(7-Chloro-6-(4-ethylbenzyl)benzo[d][1,3]dioxol-4-yl)-6-(hydroxymethyl)tetrahydro-2H-pyran-3,4,5-triol] are 86.9 nM and 0.4 nM.
On the same counts, the results for `OC[C@H]1O[C@@H](c2cc(Cc3ccc(C4CC4)cc3)c(Cl)c3c2OCCO3)[C@H](O)[C@@H](O)[C@@H]1O` [Compound E027, (2S,3R,4R,5S,6R)-2-(8-Chloro-7-(4-cyclopropylbenzyl)-2,3-dihydrobenzo[b][1,4]dioxin-5-yl)-6-(hydroxymethyl)tetrahydro-2H-pyran-3,4,5-triol] are 41.9 nM and 0.65 nM.
Turning to `C=Cc1ccc(Cc2cc([C@@H]3O[C@H](CO)[C@@H](O)[C@H](O)[C@H]3O)c3c(c2Cl)OCC3)cc1` [Compound E028, (2S,3R,4R,5S,6R)-2-(7-Chloro-6-(4-vinylbenzyl)-2,3-dihydrobenzofuran-4-yl)-6-(hydroxymethyl)tetrahydro-2H-pyran-3,4,5-triol], the IC50 against Human SGLT1 (hSGLT1) was 163 nM; against Human SGLT2 (hSGLT2), 0.37 nM.
`COc1ccc(Cc2cc([C@@H]3O[C@H](SC)[C@@H](O)[C@H](O)[C@H]3O)c3c(c2Cl)CCCO3)cc1` [Compound E029, (2S,3R,4R,5S,6R)-2-(5-Chloro-6-(4-methoxybenzyl)chroman-8-yl)-6-(methylthio)tetrahydro-2H-pyran-3,4,5-triol]: the IC50 amounted to 21.1 nM on Human SGLT1 (hSGLT1) and 0.47 nM against Human SGLT2 (hSGLT2).
On the same counts, the results for `COc1ccc(Cc2cc([C@@H]3O[C@H](CO)[C@@H](O)[C@H](O)[C@H]3O)c3c(c2Cl)CCS3)cc1` [Compound E030, (2S,3R,4R,5S,6R)-2-(4-Chloro-5-(4-methoxybenzyl)-2,3-dihydrobenzo[b]thiophen-7-yl)-6-(hydroxymethyl)tetrahydro-2H-pyran-3,4,5-triol] are 171 nM and 2.3 nM.
Turning to `CCOc1ccc(Cc2cc([C@@H]3O[C@H](CO)[C@@H](O)[C@H](O)[C@H]3O)c3c(c2Cl)C(C)CO3)cc1` (stereo partly drawn) [Compound E031, (2S,3R,4R,5S,6R)-2-(4-Chloro-5-(4-ethoxybenzyl)-3-methyl-2,3-dihydrobenzofuran-7-yl)-6-(hydroxymethyl)-tetrahydro-2H-pyran-3,4,5-triol], the results for the IC50 on Human SGLT1 (hSGLT1) and on Human SGLT2 (hSGLT2) were 196 nM and 2 nM, respectively.
On the same counts, the results for `COc1ccc(Cc2cc([C@@H]3O[C@H](CO)[C@@H](O)[C@H](O)[C@H]3O)c3c(c2C(F)F)CCC3)cc1` [Compound E032, (2S,3R,4R,5S,6R)-2-(7-(Difluoromethyl)-6-(4-methoxybenzyl)-2,3-dihydro-1H-inden-4-yl)-6-(hydroxymethyl)tetrahydro-2H-pyran-3,4,5-triol] are 16.5 nM and 0.73 nM.
On the same counts, the results for `CCc1ccc(Cc2cc([C@@H]3O[C@H](CO)[C@@H](O)[C@H](O)[C@H]3O)c3c(c2Cl)CCC3)cc1` [Compound E033, (2S,3R,4R,5S,6R)-2-(7-Chloro-6-(4-ethylbenzyl)-2,3-dihydro-1H-inden-4-yl)-6-(hydroxymethyl)tetrahydro-2H-pyran-3,4,5-triol] are 57.2 nM and 0.63 nM.
Regarding `COc1ccc(Cc2cc([C@@H]3O[C@H](CO)[C@@H](O)[C@H](O)[C@H]3O)c3c(c2Cl)SCC3)cc1` [Compound E034, (2S,3R,4R,5S,6R)-2-(7-Chloro-6-(4-methoxybenzyl)-2,3-dihydrobenzo[b]thiophen-4-yl)-6-(hydroxymethyl)tetrahydro-2H-pyran-3,4,5-triol], the IC50 against Human SGLT1 (hSGLT1) stood at 27.6 nM; on Human SGLT2 (hSGLT2), 0.9 nM.
For `CCc1ccc(Cc2cc([C@@H]3O[C@H](CO)[C@@H](O)[C@H](O)[C@H]3O)c3c(c2Cl)SCC3)cc1` [Compound E035, (2S,3R,4R,5S,6R)-2-(7-Chloro-6-(4-ethylbenzyl)-2,3-dihydrobenzo[b]thiophen-4-yl)-6-(hydroxymethyl)tetrahydro-2H-pyran-3,4,5-triol], the IC50 against Human SGLT1 (hSGLT1) is 53 nM; against Human SGLT2 (hSGLT2), 0.87 nM.
On the same counts, the results for `COc1ccc(Cc2cc([C@@H]3O[C@H](CO)[C@@H](O)[C@H](O)[C@H]3O)c3c(c2Cl)SCCC3)cc1` [Compound E036, (2S,3R,4R,5S,6R)-2-(8-Chloro-7-(4-methoxybenzyl)thiochroman-5-yl)-6-(hydroxymethyl)tetrahydro-2H-pyran-3,4,5-triol] are 10.7 nM and 0.55 nM.
On the same counts, the results for `COc1ccc(Cc2cc([C@@H]3O[C@H](CO)[C@@H](O)[C@H](O)[C@H]3O)c3c(c2C)CCCC3)cc1` [Compound E037, (2R,3S,4R,5R,6S)-2-(Hydroxymethyl)-6-(3-(4-methoxybenzyl)-4-methyl-5,6,7,8-tetrahydronaphthalen-1-yl)tetrahydro-2H-pyran-3,4,5-triol] are 10.5 nM and 0.86 nM.
On the same counts, the results for `COc1ccc(Cc2cc([C@@H]3O[C@H](CO)[C@@H](O)[C@H](O)[C@H]3O)c3c(c2Cl)CCCC3)cc1` [Compound E038, (2S,3R,4R,5S,6R)-2-(4-Chloro-3-(4-methoxybenzyl)-5,6,7,8-tetrahydronaphthalen-1-yl)-6-(hydroxymethyl)tetrahydro-2H-pyran-3,4,5-triol] are 9.6 nM and 0.6 nM.
`CCOc1ccc(Cc2cc([C@@H]3O[C@H](CO)[C@@H](O)[C@H](O)[C@H]3O)c3c(c2Cl)CCCC3)cc1` [Compound E039, (2S,3R,4R,5S,6R)-2-(4-Chloro-3-(4-ethoxybenzyl)-5,6,7,8-tetrahydronaphthalen-1-yl)-6-(hydroxymethyl)tetrahydro-2H-pyran-3,4,5-triol]: the IC50 amounted to 33.2 nM on Human SGLT1 (hSGLT1) and 0.62 nM at Human SGLT2 (hSGLT2).
On the same counts, the results for `Cc1ccc(Cc2cc([C@@H]3O[C@H](CO)[C@@H](O)[C@H](O)[C@H]3O)c3c(c2Cl)OCO3)cc1` [Compound E040, (2S,3R,4R,5S,6R)-2-(7-Chloro-6-(4-methylbenzyl)benzo[d][1,3]dioxol-4-yl)-6-(hydroxymethyl)tetrahydro-2H-pyran-3,4,5-triol] are 94.6 nM and 1 nM.

By IC50 is commonly meant the concentration needed to halve the response being measured. A high value points to weaker potency.
